One molecule from ChEMBL document CHEMBL4033627, “Quest for steroidomimetics: Amino acids derived steroidal and nonsteroidal architectures” (Eur J Med Chem, 2017) can be followed below.

The test system of one experiment is MCF7. Description: Anticancer activity against human MCF7 cells after 24 hrs by MTT assay. The class given is functional, cell-based. The note with it: MCF7, 24 h.
The test system of the next experiment is MDA-MB-231. Description: Anticancer activity against human MDA-MB-231 cells after 24 hrs by MTT assay. The class given is functional, cell-based. The conditions noted are these: MDA-MB-231, 24 h.

As to `Cc1ccc(S(=O)(=O)N2Cc3ccccc3OC[C@@H]2Cc2ccc(O)cc2)cc1`, the results for the IC50 in the experiment with MCF7 and with MDA-MB-231 were 20 µM and 30 µM, respectively.
